For assay [1], the target named is PIK3CB (Human) (UniProt P42338). Kind of assay: Assessment of PIK3CB Kinase Activity.
Assay [2] concerns the target PIK3CG (human) (UniProt P48736). Kind of assay: Assessment of PIK3CG Kinase Activity.
The target of assay [3] is PIK3CD (Human) (UniProt O00329). Kind of assay: Assessment of PIK3CD Kinase Activity in RAJI Cells.
Assay [4] has the same target. Kind of assay: Assessment of PIK3CD Kinase Activity.
The target in assay [5] is PIK3CA (human) (UniProt P42336). Put plainly: Assessment of PIK3CA Kinase Activity.
Chain of PIK3CA (human) (P42336 whole entry, looked up): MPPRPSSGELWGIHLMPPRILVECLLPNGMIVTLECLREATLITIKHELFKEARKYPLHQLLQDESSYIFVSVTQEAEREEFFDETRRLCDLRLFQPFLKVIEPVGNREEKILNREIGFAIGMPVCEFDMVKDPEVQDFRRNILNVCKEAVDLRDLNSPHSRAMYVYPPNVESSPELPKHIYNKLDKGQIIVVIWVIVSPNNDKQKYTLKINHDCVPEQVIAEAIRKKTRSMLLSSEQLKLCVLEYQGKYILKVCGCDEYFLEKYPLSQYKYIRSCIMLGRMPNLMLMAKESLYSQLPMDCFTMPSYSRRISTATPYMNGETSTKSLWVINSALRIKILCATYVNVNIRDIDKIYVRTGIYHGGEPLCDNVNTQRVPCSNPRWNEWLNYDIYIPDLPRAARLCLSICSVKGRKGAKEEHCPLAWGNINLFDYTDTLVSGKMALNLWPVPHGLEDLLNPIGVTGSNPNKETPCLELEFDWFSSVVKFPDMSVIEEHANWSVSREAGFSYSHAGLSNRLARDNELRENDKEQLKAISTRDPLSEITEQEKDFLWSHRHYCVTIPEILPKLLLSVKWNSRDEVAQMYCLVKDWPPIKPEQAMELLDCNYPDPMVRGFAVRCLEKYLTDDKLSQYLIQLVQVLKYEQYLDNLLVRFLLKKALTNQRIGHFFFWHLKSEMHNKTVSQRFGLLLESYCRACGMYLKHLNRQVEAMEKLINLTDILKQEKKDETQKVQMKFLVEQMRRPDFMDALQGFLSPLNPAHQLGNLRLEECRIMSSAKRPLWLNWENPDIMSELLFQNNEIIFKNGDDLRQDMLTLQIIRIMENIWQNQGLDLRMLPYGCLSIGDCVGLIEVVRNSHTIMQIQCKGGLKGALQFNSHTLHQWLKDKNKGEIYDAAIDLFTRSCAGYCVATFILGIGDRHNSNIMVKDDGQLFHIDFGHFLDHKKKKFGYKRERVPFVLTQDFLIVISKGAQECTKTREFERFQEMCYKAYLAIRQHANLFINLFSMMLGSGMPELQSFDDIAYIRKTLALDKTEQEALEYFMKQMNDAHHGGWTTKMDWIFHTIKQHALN

Broadly, the IC50 is the concentration needed to halve the response being measured. Higher therefore signals weaker potency in that assay.

Chain of PIK3CB (Human) (P42338 whole entry, looked up): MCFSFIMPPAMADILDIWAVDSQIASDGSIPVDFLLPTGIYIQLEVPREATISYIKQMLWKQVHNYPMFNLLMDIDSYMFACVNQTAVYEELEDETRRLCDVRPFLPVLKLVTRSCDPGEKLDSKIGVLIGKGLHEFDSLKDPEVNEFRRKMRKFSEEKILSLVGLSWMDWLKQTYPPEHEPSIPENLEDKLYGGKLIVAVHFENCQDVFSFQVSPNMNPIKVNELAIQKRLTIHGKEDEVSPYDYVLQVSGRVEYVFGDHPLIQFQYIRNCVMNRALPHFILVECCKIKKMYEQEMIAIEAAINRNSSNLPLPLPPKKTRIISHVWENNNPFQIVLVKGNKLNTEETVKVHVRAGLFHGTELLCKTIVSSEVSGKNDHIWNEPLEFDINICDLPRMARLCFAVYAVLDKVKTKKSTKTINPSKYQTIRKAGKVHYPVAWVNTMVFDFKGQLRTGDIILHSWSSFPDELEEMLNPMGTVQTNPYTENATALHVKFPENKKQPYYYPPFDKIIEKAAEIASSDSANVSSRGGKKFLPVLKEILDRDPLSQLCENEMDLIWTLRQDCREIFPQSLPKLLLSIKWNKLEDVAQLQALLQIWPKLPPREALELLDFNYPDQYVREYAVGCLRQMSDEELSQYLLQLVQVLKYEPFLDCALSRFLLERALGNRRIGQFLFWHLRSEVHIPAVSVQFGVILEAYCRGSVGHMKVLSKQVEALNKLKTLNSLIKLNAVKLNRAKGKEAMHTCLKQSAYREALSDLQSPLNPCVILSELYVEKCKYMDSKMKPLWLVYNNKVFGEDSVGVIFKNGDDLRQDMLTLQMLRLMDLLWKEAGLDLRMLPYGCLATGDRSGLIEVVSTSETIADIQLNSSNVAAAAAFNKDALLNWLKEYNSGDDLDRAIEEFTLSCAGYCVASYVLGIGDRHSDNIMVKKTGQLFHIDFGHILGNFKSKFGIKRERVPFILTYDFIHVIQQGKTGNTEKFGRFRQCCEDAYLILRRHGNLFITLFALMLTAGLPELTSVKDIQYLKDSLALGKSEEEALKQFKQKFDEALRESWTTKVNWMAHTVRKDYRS
Chain of PIK3CG (human) (P48736 whole entry, looked up): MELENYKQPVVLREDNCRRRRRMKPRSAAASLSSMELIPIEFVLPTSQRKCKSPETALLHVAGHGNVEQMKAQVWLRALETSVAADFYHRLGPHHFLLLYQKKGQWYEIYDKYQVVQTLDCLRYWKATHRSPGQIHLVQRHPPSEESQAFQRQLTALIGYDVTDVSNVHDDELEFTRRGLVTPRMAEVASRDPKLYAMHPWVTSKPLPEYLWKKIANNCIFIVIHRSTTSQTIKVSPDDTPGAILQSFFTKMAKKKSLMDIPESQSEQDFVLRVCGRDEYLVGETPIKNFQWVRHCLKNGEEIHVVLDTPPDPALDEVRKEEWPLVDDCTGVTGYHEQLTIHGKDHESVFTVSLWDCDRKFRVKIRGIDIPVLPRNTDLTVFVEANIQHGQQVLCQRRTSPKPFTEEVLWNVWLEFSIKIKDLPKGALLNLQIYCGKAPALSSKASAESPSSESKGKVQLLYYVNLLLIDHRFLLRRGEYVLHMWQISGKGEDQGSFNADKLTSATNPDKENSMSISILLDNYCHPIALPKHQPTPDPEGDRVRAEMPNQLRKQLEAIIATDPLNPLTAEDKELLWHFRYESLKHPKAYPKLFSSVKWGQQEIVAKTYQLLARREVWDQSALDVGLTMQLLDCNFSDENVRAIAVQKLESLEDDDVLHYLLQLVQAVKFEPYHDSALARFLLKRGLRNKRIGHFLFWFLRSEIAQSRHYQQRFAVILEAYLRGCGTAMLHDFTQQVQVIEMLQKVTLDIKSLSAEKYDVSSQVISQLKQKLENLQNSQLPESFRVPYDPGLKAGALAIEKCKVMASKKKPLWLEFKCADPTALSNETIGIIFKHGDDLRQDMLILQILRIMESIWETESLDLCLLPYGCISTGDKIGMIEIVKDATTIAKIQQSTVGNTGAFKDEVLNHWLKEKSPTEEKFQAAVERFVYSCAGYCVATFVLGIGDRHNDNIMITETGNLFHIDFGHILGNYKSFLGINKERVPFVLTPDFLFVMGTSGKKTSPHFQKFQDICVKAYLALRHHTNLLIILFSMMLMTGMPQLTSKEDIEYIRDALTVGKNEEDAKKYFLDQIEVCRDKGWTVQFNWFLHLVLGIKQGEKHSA
Chain of PIK3CD (Human) (O00329 whole entry, looked up): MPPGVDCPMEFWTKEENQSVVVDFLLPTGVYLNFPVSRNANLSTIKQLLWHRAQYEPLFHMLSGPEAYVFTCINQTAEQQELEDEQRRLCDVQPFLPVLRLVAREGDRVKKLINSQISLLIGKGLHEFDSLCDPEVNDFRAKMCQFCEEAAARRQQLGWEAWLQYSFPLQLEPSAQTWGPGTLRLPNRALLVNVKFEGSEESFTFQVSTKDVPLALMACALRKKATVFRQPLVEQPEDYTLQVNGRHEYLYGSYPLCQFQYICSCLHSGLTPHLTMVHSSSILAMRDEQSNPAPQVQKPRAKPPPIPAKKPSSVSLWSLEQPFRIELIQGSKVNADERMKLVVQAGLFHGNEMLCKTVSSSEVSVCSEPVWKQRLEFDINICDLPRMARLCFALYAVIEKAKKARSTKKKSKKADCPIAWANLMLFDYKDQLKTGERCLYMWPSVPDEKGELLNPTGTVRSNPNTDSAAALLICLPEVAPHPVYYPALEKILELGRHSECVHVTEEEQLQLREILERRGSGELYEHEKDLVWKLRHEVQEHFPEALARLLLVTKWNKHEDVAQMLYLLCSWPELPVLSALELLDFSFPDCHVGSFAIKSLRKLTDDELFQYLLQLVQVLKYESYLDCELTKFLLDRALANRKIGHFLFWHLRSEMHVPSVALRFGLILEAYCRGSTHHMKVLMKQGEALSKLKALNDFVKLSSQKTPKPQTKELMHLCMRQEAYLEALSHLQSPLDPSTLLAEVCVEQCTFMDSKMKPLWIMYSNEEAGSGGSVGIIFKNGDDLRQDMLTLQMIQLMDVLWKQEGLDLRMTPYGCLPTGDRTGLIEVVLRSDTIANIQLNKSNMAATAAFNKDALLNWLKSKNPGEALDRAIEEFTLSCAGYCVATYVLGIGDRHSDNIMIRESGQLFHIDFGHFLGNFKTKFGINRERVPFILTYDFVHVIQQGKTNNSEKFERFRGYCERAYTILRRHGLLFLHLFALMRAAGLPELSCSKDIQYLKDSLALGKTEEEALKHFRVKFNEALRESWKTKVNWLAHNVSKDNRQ

As to `CNS(=O)(=O)c1cccc(-c2cnc(N)nc2N[C@@H](C)c2cc3cccc(Cl)c3c(=O)n2-c2ccccc2)c1`, the IC50 in assay [1] was 100 to 1000 nM; in assay [2] it was below 100 nM; in assay [3] it was below 100 nM; in assay [4] it was 100 to 1000 nM.

As for `C[C@H](Nc1nc(N)ncc1C#N)c1cc2cccc(Cl)c2c(=O)n1-c1cccc(C#N)c1`, the IC50 in assay [1] was 100 to 1000 nM; in assay [2], 100 to 1000 nM; in assay [3], below 100 nM; in assay [4], below 100 nM.

For `C[C@H](Nc1nc(N)ncc1-c1ccc(S(C)(=O)=O)nc1)c1cc2cccc(Cl)c2c(=O)n1-c1ccccc1`, the IC50 is 100 to 1000 nM in assay [2], below 100 nM in assay [3] and above 10000 nM in assay [5].

With `COc1cc(-c2cccc3cc([C@H](C)Nc4nc(N)ncc4C#N)n(-c4ccccc4)c(=O)c23)ccn1`, the 50% inhibitory concentration (IC50) in assay [2] is below 100 nM; in assay [3], below 100 nM; in assay [5], 100 to 1000 nM; in assay [4], below 100 nM.

For the molecule `C[C@H](Nc1nc(N)ncc1-c1cccc(S(=O)(=O)C2CC2)c1)c1cc2cccc(Cl)c2c(=O)n1-c1ccccc1`, the IC50 in assay [2], in assay [3] and in assay [4] was below 100 nM throughout.

Take `C[C@H](Nc1nc(N)ncc1-c1cccc(S(C)(=O)=O)c1)c1cc2cccc(C(F)(F)F)c2c(=O)n1-c1ccccc1`: the IC50 in assay [2] is 100 to 1000 nM; in assay [3], below 100 nM; in assay [4], 100 to 1000 nM.

`C[C@H](Nc1nc(N)ncc1C#N)c1cc2cccc(Cl)c2c(=O)n1C1CC1`: the IC50 in assay [2] was below 100 nM; in assay [3], below 100 nM; in assay [5] it was above 10000 nM.

As to `COc1ncc(-c2cnc(N)nc2N[C@@H](C)c2cc3cccc(Cl)c3c(=O)n2-c2ccccc2)s1`, the IC50 in assay [2] was below 100 nM; in assay [3], below 100 nM; in assay [5], above 10000 nM; in assay [4], below 100 nM.

Take `CCOc1nc(-c2cnc(N)nc2N[C@@H](C)c2cc3cccc(-c4cnc(OC)nc4)c3c(=O)n2-c2ccccc2)cs1`: the IC50 in assay [2] is 100 to 1000 nM; in assay [3] it was below 100 nM; in assay [4], below 100 nM.

Turning to `N#Cc1cnc(N)nc1NCc1cc2cccc(Cl)c2c(=O)n1-c1ccccc1`, the half-inhibitory concentration (IC50) was 100 to 1000 nM in assay [2], below 100 nM in assay [3] and below 100 nM in assay [4].

For the molecule `COc1ncc(-c2cccc3cc([C@H](C)Nc4ncnc(N)c4C#N)n(-c4ccon4)c(=O)c23)cn1`, the IC50 in assay [1] is above 10000 nM; in assay [3], below 100 nM; in assay [4], 100 to 1000 nM.

On to `COc1ncc(-c2cccc3cc([C@H](C)Nc4nc(N)ncc4C#N)n(C(C)C)c(=O)c23)cn1`, for which the 50% inhibitory concentration (IC50) was above 10000 nM in assay [1], 100 to 1000 nM in assay [2], below 100 nM in assay [3] and below 100 nM in assay [4].

With `C[C@H](Nc1nc(N)ncc1-c1cccc(NS(C)(=O)=O)c1)c1cc2cccc(Cl)c2c(=O)n1-c1ccccc1`, the IC50 in assay [2], in assay [3] and in assay [4] was below 100 nM in each case.

In the case of `C[C@H](Nc1nc(N)ncc1C#N)c1cc2cccc(Cl)c2c(=O)n1-c1c(F)cccc1F`, the IC50 in assay [2] is 100 to 1000 nM; in assay [3], below 100 nM; in assay [5], above 10000 nM.

Regarding `Cc1ncc(-c2cccc3cc([C@H](C)Nc4nc(N)ncc4C#N)n(-c4ccon4)c(=O)c23)cn1`, the 50% inhibitory concentration (IC50) is above 10000 nM in assay [1], below 100 nM in assay [3], above 10000 nM in assay [5] and below 100 nM in assay [4].

With `C[C@H](Nc1nc(N)ncc1-c1cccc(S(C)(=O)=O)c1)c1cc2cccc(Cl)c2c(=O)n1-c1ccccc1`, the IC50 in assay [2] is below 100 nM; in assay [3], below 100 nM; in assay [4] it was 100 to 1000 nM.

On to `C[C@H](Nc1nc(N)ncc1C#N)c1cc2cccc(Cl)c2c(=O)n1-c1ccc(F)c(F)c1`, for which the figures for the half-inhibitory concentration (IC50) in assay [2], in assay [3] and in assay [5] were below 100 nM, below 100 nM and above 10000 nM, respectively.

With `COc1cccc(-n2c([C@H](C)Nc3nc(N)ncc3C#N)cc3cccc(Cl)c3c2=O)c1`, the IC50 in assay [2] was below 100 nM; in assay [3], below 100 nM; in assay [5], above 10000 nM; in assay [4] it was 100 to 1000 nM.

As for `Cc1ccc(NS(C)(=O)=O)cc1-c1cnc(N)nc1N[C@@H](C)c1cc2cccc(Cl)c2c(=O)n1-c1ccccc1`, the IC50 in assay [2] is below 100 nM; in assay [3] it was below 100 nM; in assay [5] it was above 10000 nM; in assay [4], below 100 nM.

`C[C@H](Nc1nc(N)ncc1-c1cnc(S(C)(=O)=O)s1)c1cc2cccc(Cl)c2c(=O)n1-c1ccccc1`: the IC50 was below 100 nM in assay [2], below 100 nM in assay [3], above 10000 nM in assay [5] and below 100 nM in assay [4].

Regarding `C[C@H](Nc1nc(N)ncc1C(=O)C1CC1)c1cc2cccc(Cl)c2c(=O)n1-c1ccccc1`, the IC50 is above 10000 nM in assay [1] and below 100 nM in assay [3].

On to `CC(C)C(=O)c1cnc(N)nc1N[C@@H](C)c1cc2cccc(Cl)c2c(=O)n1-c1ccccc1`, for which the IC50 in assay [1] is above 10000 nM; in assay [2] it was 100 to 1000 nM; in assay [3] it was below 100 nM; in assay [4] it was 100 to 1000 nM.

On to `C[C@H](Nc1nc(N)ncc1-c1cccc(N(C)S(C)(=O)=O)c1)c1cc2cccc(Cl)c2c(=O)n1-c1ccccc1`, for which the IC50 in assay [2] was below 100 nM; in assay [3], below 100 nM; in assay [4] it was 100 to 1000 nM.

For the molecule `COc1ncc(-c2cccc3cc([C@H](C)Nc4nc(N)ncc4-c4cncs4)n(-c4ccccc4)c(=O)c23)cn1`, the IC50 in assay [2], in assay [3] and in assay [4] was below 100 nM each time.

Regarding `CC(C)n1c([C@H](C)Nc2ncnc(N)c2C#N)cc2cccc(Cl)c2c1=O`, the IC50 in assay [2] was 100 to 1000 nM; in assay [3], below 100 nM; in assay [4], below 100 nM.

`COc1cc(-n2c([C@H](C)Nc3nc(N)ncc3C#N)cc3cccc(Cl)c3c2=O)ccc1F`: the IC50 in assay [2] was below 100 nM; in assay [3] it was below 100 nM; in assay [5], above 10000 nM.

As for `C[C@H](Nc1nc(N)ncc1C#N)c1cc2cccc(-c3ccc(=O)n(C)c3)c2c(=O)n1-c1ccon1`, the IC50 in assay [2] was 100 to 1000 nM; in assay [3], below 100 nM.

Take `C[C@H](Nc1nc(N)ncc1-c1cccc(S(N)(=O)=O)c1)c1cc2cccc(Cl)c2c(=O)n1-c1ccccc1`: the IC50 in assay [1] was above 10000 nM; in assay [2] it was below 100 nM; in assay [3], below 100 nM; in assay [4] it was 100 to 1000 nM.

With `COC(=O)c1cccc(-n2c([C@H](C)Nc3nc(N)ncc3C#N)cc3cccc(Cl)c3c2=O)c1`, the IC50 is above 10000 nM in assay [1], below 100 nM in assay [3] and 100 to 1000 nM in assay [4].

Regarding `CCS(=O)(=O)c1cccc(-c2cnc(N)nc2N[C@@H](C)c2cc3cccc(Cl)c3c(=O)n2-c2ccccc2)c1`, the IC50 in assay [1] was 100 to 1000 nM; in assay [2], above 10000 nM; in assay [3] it was below 100 nM; in assay [4], 100 to 1000 nM.

`COc1ccc(-c2cnc(N)nc2N[C@@H](C)c2cc3cccc(Cl)c3c(=O)n2-c2ccccc2)cn1`: the IC50 in assay [1] was above 10000 nM; in assay [2], below 100 nM; in assay [3] it was below 100 nM; in assay [4] it was 100 to 1000 nM.

Take `C[C@H](Nc1ncncc1-c1cccc(S(=O)(=O)N(C)C)c1)c1cc2cccc(Cl)c2c(=O)n1-c1ccccc1`: the IC50 was above 10000 nM in assay [1], 100 to 1000 nM in assay [2], below 100 nM in assay [3] and 100 to 1000 nM in assay [4].
